One assay concerns T98. Nature of the assay: MTT cytotoxicity assay, T98. The class given is cell-based, human. The note with it: 72 h incubation. How it is done:
The cytotoxic activity of prepared RAPTA complexes (4a–4h) was evaluated by following the standard procedure of the MTT experiment against a series of glioblastoma cells (LN 229, T98, U87MG) in triplicate. In order to accomplish this study, cells were maintained for 72 h with complexes of various concentrations ranging from 2–160 μM, taking cisplatin as a typical positive control.[22]
RAPTA complexes were dissolved in 1% DMSO, and 0.9% NaCl aqueous solution was used to dissolve cisplatin. A cell suspension was prepared and the number of cells taken was 2.5 × 10^4 mL^−1. The cells were seeded in 96-well plates (200 μL per well) and allowed 80% confluence prior to treatment. The cells were formerly treated with various concentrations (2.5–160 μM) of complex 4a–h while the control group was treated with PBS […]. After the 72 hours of incubation, 0.5% MTT solution was added to each well (20 μL) and further incubated for 4 hours at […]. The formazan crystals that were formed were dissolved in 150 μL DMSO and then the OD was measured by a microplate reader at 540 nm. The % growth inhibition of the control and treated cells were calculated and represented as the growth inhibition percentage as explained below.% growth inhibition = 100 − [(AD × 100)/AB]where AD is the absorbance measured in wells containing the treated and control samples and AB is the measured absorbance for the wells with media and a vehicle that served as the blank. IC50 was calculated using Graphpad Prism (version 6.0) where % cell viability was plotted against drug concentration.
In general terms: Tetrazolium dyes change colour on reduction, which living cells bring about.

The subject of assay [1] is Ct-DNA. Nature of the assay: DNA binding study, UV-visible absorption titration. More on the design: species or system calf. The protocol: The DNA binding proficiency of RAPTA complexes was explored by applying the concept of electronic absorption titration. The binding propensity of the RAPTA complex, 4c with Ct-DNA, was investigated using UV-visible studies. […] From the plot of [DNA]/(εa − εf) vs. [DNA] the intrinsic binding constant (Kb) was recognized for the specified 4c–DNA conjugate.
The binding capability of the complexes with calf-thymus DNA (Ct-DNA) was evaluated using electronic absorption spectroscopy, and the competitive binding assay was studied using ethidium bromide (EtBr) as a quencher by fluorescence spectroscopy.
The DNA binding experiment was performed in aqueous medium using RAPTA complex 4c in Tris-HCl buffer (5 mM Tris-HCl in water, pH 7.4). The concentration of Ct-DNA was determined using its absorbance at 260 nm and a known molar absorption coefficient of 6600 M-1.cm-1. In cuvettes, an equal amount of DNA was introduced to both the sample and the reference. […] The sample was equilibrated with CT-DNA for around 5 minutes before each measurement, and then the complex's absorbance was measured. The intrinsic DNA binding constant (K b) was calculated using the equation (i): […]
UV and Fluorescence study
All of these RAPTA complexes were studied in a 10% DMSO solution using UV and fluorescence. […] Quantum yield was calculated according to the equation (ii): […]

In assay [2] the test system is Ct-DNA. Nature of the assay: Viscosity measurement with Ct-DNA. The format is binding, calf. The note with it: with respect to EtBr. How it is done:
The hydrodynamic study of the viscosity was conducted to screen the binding nature of the designated complexes 4c and 4d with Ct-DNA.
with respect to cisplatin.
UV–Visible, fluorescence spectroscopies and cyclic voltammetry, J. Photochem.
2. M. Shamsi-Sani, F. Hirini, SM. Abedini, M. Seddighi, Synthesis of benzimidazole
dipyridoquinoxaline and dipyridophenazine ligands as photosensitizing antennae:
curvature in Stern-Volmer plots, J. Am. Chem. Soc., 1983, 105, 1494–1498. (b) B.
hypoxia active, GSH-resistant cancer cytoselective and mitochondria-targeting
cancer stem cell therapeutic agents. Dalton Trans., 2022, 51, 5494-5514.
derivative with bovine serum albumin, J. Pharm. Anal., 2016, 6, 56–63.
6. K. Jeyalakshmi, J. Haribabu, C. Balachandran, S. Swaminathan, N. S. P.

For assay [3], the system named is TNF-α-induced NF-κB phosphorylation. Description: Real-time RT-PCR. The class given is cell-based, human. The following applies: glioma cells, 48 h. The source says: It is known that the NF-κB pathway plays an important role in the modulation of inflammatory and immune responses.[25] Under normal conditions, NF-κB is found in the cytoplasm as the dimer complex p65/p50 with the kappa B inhibitor forming the NF-κB-IκB complex which involves TNF-α. As expected, the treatment with TNF-α induces IκB protein phosphorylation and the NF-κB dimer p65/p50 is translocated into the nucleus. Inside the nucleus, the NF-κB dimer binds to its own DNA and the κB site, initiating the transcription of many genes associated with proliferation as well as the invasion of cells, anti-apoptosis along with drug resistivity (e.g., Bcl-2 family, Bcl-XL, cyclin D1, c-myc, interleukin-1 and 6 (IL-6), cyclooxygenase-2 (COX-2), inducible NO-synthase (iNOS)). Complex 4c reduced TNF-α-induced NF-κB phosphorylation at 48 h. In summary, complex 4c inhibited the TNF-α-induced NF-κB phosphorylation in glioma cells and NF-κB could be validated as a targeted therapeutic molecule for tumour diseases (Fig. S5 ^†).
Cultured cells U87MG and T98G were treated with various concentrations of 4c (20–160 μM) for 48 h. Total RNA was extracted and complementary DNA (cDNA) was transcribed using Qiazol reagent and Thermo Scientific Revert Aid First Strand cDNA Synthesis Kit. […] The amplified products were analyzed by a melting curve analysis.
Background: Quantitative PCR measures a nucleic acid by following its amplification.

The IC50 is the point on the concentration scale where inhibition reaches its midpoint. In the assay with T98, `C1N2CN3CN1CP(C2)C3.Cc1ccc(C(C)C)cc1.Cc1ccnc2c1ccc1c(C)ccnc12.F[P-](F)(F)(F)(F)F.F[P-](F)(F)(F)(F)F.[Ru+2]` [4c, [(η^6-p-Cymene)Ru^II(κ^2-N,N-4,7dimethylphenanthroline)(PTA)]·2PF6] displayed an IC50 of 970 ± 20 nM. Moreover, in the assay with Ct-DNA [1], the Change in absorbance result was “Hyperchromism” and the “Δε (%), % of hyperchromism/hypochromism” value worked out at 50%. For the same compound, the “relative viscosity of Ct-DNA on increasing complex concentration” value with Ct-DNA [2] is recorded as “abrupt increase in viscosity up to ri = 2”. Besides, the “TNF-α-induced NF-κB phosphorylation” value in assay [3] is given as “reduced”.

Regarding `C1N2CN3CN1CP(C2)C3.Cc1ccc(C(C)C)cc1.F[P-](F)(F)(F)(F)F.F[P-](F)(F)(F)(F)F.[Ru+2].c1ccc(-c2ccnc3c2ccc2c(-c4ccccc4)ccnc23)cc1` [4d, [(η^6-p-Cymene)Ru^II(κ^2-N,N-4,7diphenylphenanthroline)(PTA)]·2PF6], it took 940 ± 20 nM to reach half-maximal inhibition in the assay with T98 (IC50). Besides, the “relative viscosity of Ct-DNA on increasing complex concentration” value in the assay with Ct-DNA [2] was “steady escalation in the relative viscosity”.

(Values after PMC9241057, “Ru(II)arene(N^N bpy/phen)-based RAPTA complexes for in vitro anti-tumour activity in human glioblastoma cancer cell lines and in vivo toxicity studies in a zebrafish model” (RSC Advances, 2022).)
